Here are results for 19 molecules from patent US10858335B2 (Rigel Pharmaceuticals, Inc., priority 2014, dated 2020).

The test system of the assay is GDF8 signaling (p-SMAD-3 (Ser423/425)). Nature of the assay: AlphaScreen SureFire SMAD3 (p-Ser423/425) assay, GDF8-stimulated cells (GDF pSMAD). In kind it is cell-based. The conditions noted are these: Mus musculus, MPC-11, MPC11; GDF8-stimulated; p-SMAD3 AlphaScreen; read-out: GDF pSMAD (MPC11) (inhibition of GDF8 signaling). In general terms: In Alpha technology, singlet oxygen from a donor bead excites a nearby acceptor bead.
Turning to `Cc1cccc(-c2cccnc2-c2ccc3nc[nH]c3c2)n1` [compound 521, 6-(6-Methyl-[2,3′-bipyridin]-2′-yl)-1H-benzo[d]imidazole], the IC50 worked out at 8.06 µM.

For `Cc1cc(-c2ncccc2-c2ccc3ncc(C)n3c2)ccc1F` [compound 527, 6-(2-(4-Fluoro-3-methylphenyl)pyridin-3-yl)-3-methylimidazo[1,2-a]pyridine], the IC50 worked out at 0.137 µM.

As for `Cc1cccc(-c2ncccc2-c2ccc3ncc(C)n3c2)c1` [compound 528, 3-Methyl-6-(2-(m-Tolyl)pyridin-3-yl)imidazo[1,2-a]pyridine], the IC50 was found to be 0.175 µM.

`Cc1cnc2ccc(-c3cccnc3-c3cccc(C4CC4)c3)cn12` [compound 529, 6-(2-(3-Cyclopropylphenyl)pyridin-3-yl)-3-methylimidazo[1,2-a]pyridine]: the IC50 stood at 0.323 µM.

For the molecule `Cc1cnc2ccc(-c3cccnc3-c3cccc(C(F)(F)F)c3)cn12` [compound 530, 3-Methyl-6-(2-(3-(trifluoromethyl)phenyl)pyridin-3-yl)imidazo[1,2-a]pyridine], the IC50 worked out at 0.625 µM.

For `Cc1cn2cc(-c3cccnc3-c3ccc(F)c(C)c3)ccc2n1` [compound 531, 6-(2-(4-Fluoro-3-methylphenyl)pyridin-3-yl)-2-methylimidazo[1,2-a]pyridine], the IC50 came to 11.2 µM.

For `Cc1cccc(-c2ncccc2-c2ccc3nc(C)cn3c2)c1` [compound 532, 2-Methyl-6-(2-(m-tolyl)pyridin-3-yl)imidazo[1,2-a]pyridine], the IC50 is 17.7 µM.

On to `Cc1cn2cc(-c3cccnc3-c3cccc(C4CC4)c3)ccc2n1` [compound 533, 6-(2-(3-Cyclopropylphenyl)pyridin-3-yl)-2-methylimidazo[1,2-a]pyridine], for which the IC50 was 6.12 µM.

On to `Cc1cn2cc(-c3cccnc3-c3cccc(C(F)(F)F)c3)ccc2n1` [compound 534], for which the IC50 turned out to be 18 µM.

Take `Cc1cc(-c2ncccc2-c2ccc3ncccc3n2)ccc1F` [compound 535, 2-(2-(4-Fluoro-3-methylphenyl)pyridin-3-yl)-1,5-naphthyridine]: the IC50 is 0.504 µM.

`Cc1cccc(-c2ncccc2-c2ccc3ncccc3n2)c1` [compound 536, 2-(2-(m-Tolyl)pyridin-3-yl)-1,5-naphthyridine]: the IC50 was found to be 0.404 µM.

Turning to `c1cc(-c2ncccc2-c2ccc3ncccc3n2)cc(C2CC2)c1` [compound 537, 2-(2-(3-Cyclopropylphenyl)pyridin-3-yl)-1,5-naphthyridine], the IC50 is 0.111 µM.

`FC(F)(F)c1cccc(-c2ncccc2-c2ccc3ncccc3n2)c1` [compound 538, 2-(2-(3-(Trifluoromethyl)phenyl)pyridin-3-yl)-1,5-naphthyridine]: the IC50 came out at 0.474 µM.

Consider `Cc1cc(-c2ncccc2-c2ccc3nccnc3c2)ccc1F` [compound 539, 6-(2-(4-Fluoro-3-methylphenyl)pyridin-3-yl)quinoxaline], for which the IC50 was found to be 0.699 µM.

On to `Cc1cccc(-c2ncccc2-c2ccc3nccnc3c2)c1` [compound 540, 6-(2-(m-Tolyl)pyridin-3-yl)quinoxaline], for which the IC50 was 0.426 µM.

Take `c1cc(-c2ncccc2-c2ccc3nccnc3c2)cc(C2CC2)c1` [compound 541, 6-(2-(3-Cyclopropylphenyl)pyridin-3-yl)quinoxaline]: the IC50 was 0.25 µM.

As for `FC(F)(F)c1cccc(-c2ncccc2-c2ccc3nccnc3c2)c1` [compound 542, 6-(2-(3-(Trifluoromethyl)phenyl)pyridin-3-yl)quinoxaline], the IC50 was 1.72 µM.

As for `Cc1cccc(-c2ncccc2-c2ccc3nccc(N4CCOCC4)c3c2)c1` [compound 548, 4-(6-(2-(m-Tolyl)pyridin-3-yl)quinolin-4-yl)morpholine], the IC50 was found to be 16.4 µM.

For the molecule `c1cc(-c2ncccc2-c2ccc3nccc(N4CCOCC4)c3c2)cc(C2CC2)c1` [compound 549, 4-(6-(2-(3-Cyclopropylphenyl)pyridin-3-yl)quinolin-4-yl)morpholine], the IC50 was determined as 5.01 µM.
